# Measurements as given in US4327097A, “Novel penicillins” (Toyama Chemical Co., Ltd., priority 1974, dated 1982).
# Tests used:
# Escherichia coli NIHJ = experiment: MIC, plate method, standard strains; type: cell-based; details: Table 4, standard strain; unit assumed
# Outline: (§1)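 Heart infusion agar, pH 7.4, plate method. Inoculum: 10^4 cells/plate (10^6 cells/ml). Read-out: MIC.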
# [1] = test system: Staphylococcus aureus 209p; experiment: MIC, plate method, standard strains; type: cell-based; details: Table 4, standard strain; unit assumed
# Outline: as §1
# Proteus vulgaris 3027 = experiment: MIC, plate method, standard strains; type: cell-based; details: Table 4, standard strain; unit assumed
# Outline: as §1
# [2] = test system: Pseudomonas aeruginosa I.F.O.; experiment: MIC, plate method, standard strains; type: cell-based; details: Table 4, standard strain; unit assumed
# Outline: as §1
# Klebsiella pneumoniae [3] = experiment: MIC, plate method, standard strains; type: cell-based; details: Table 4, standard strain; unit assumed
# Outline: as §1
# Proteus mirabilis = experiment: MIC against clinical isolates; type: cell-based; details: Table 6-5, clinical isolate; unit assumed
# Escherichia coli = experiment: MIC against clinical isolates; type: cell-based; details: Table 6-2, clinical isolate; unit assumed
# Proteus rettgeri = experiment: MIC against clinical isolates; type: cell-based; details: Table 6-5, clinical isolate; unit assumed
# Klebsiella pneumoniae [4] = experiment: MIC against clinical isolates; type: cell-based; details: Table 6-4, clinical isolate; unit assumed
# Pseudomonas aeruginosa = experiment: MIC against clinical isolates; type: cell-based; details: unit assumed; for MIC Pseudomonas aeruginosa GN4 / MIC Pseudomonas aeruginosa GN 82 / MIC Pseudomonas aeruginosa GN 221 / MIC Pseudomonas aeruginosa GN 376 / MIC Pseudomonas aeruginosa GN 1035 / MIC Pseudomonas aeruginosa GN 1091 / MIC Pseudomonas aeruginosa GN 2565 / MIC Pseudomonas aeruginosa GN: Table 6-3, clinical isolate; for MIC Pseudomonas aeruginosa S-1: Table 6-4, clinical isolate; for MIC Pseudomonas aeruginosa GN: strain number not given
# Proteus morganii = experiment: MIC against clinical isolates; type: cell-based; details: Table 6-5, clinical isolate; unit assumed
# Staphylococcus aureus = experiment: MIC against clinical isolates; type: cell-based; details: Table 6-1, clinical isolate; unit assumed
# Proteus vulgaris = experiment: MIC against clinical isolates; type: cell-based; details: Table 6-5, clinical isolate; unit assumed
# [5] = target: β-lactamase, Escherichia freundii GN 346 (Citrobacter freundii, UniProt Q46041); experiment: Resistant activity against β-lactamase, iodometric assay; type: biochemical; details: control Cephalorizine = 100
# Chain of β-lactamase, Escherichia freundii GN 346 (Q46041 entry or part of it): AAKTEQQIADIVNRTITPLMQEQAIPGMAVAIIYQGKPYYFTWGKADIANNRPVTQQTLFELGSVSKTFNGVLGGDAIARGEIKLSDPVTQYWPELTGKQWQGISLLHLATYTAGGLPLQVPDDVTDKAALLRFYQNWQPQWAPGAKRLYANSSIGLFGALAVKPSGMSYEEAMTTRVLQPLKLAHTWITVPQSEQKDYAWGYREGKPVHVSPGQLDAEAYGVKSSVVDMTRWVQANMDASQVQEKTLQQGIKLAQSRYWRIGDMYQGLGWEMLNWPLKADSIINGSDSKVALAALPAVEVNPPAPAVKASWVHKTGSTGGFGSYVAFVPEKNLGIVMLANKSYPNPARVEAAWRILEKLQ
# Protocol: (§2) (4) Resistant activity of each cephalosporin compound against β-lactamase, Proteus vulgaris GN 76 and Escherichia freundii GN 346:
# (§3) The resistant activity of each cephalosporin compound against β-lactamase was measured in the manner described below.
# (§4) β-lactamase was prepared from Proteus vulgaris GN 76 and Escherichia freundii GN 346. 10 ml of an overnight culture in Heart Infusion broth was diluted with 100 ml of a medium containing 2 g of yeast extract, 10 g of polypeptone, 2 g of glucose, 7 g of disodium hydrogen phosphate, 2 g of potassium dihydrogen phosphate, 1.2 g of ammonium sulfate and 0.4 g of magnesium sulfate, per liter, and incubated with shaking at 37° C. After incubation of 2 hrs, Penicillin G (50 μg/ml) was added as the inducer, and further incubated for 2 hrs. The resulting cells were collected by centrifugation (5,000 r.p.m.×10 min.) and washed two times with 0.1 M phosphate buffer (pH 7.0). Subsequently, the cells were subjected to sonication (20 KHz, 5 min.) and then centrifuged at 15,000 r.p.m. for 60 min. By using the supernatant of enzyme fluid, the stability of each compound against β-lactamase was determined by the iodometric assay method. Each numeral shown in Table 7-2 is a relative activity value calculated by assuming as 100 the activity of the control Cephalorizine.
# [6] = target: T1, β-lactamase, Proteus vulgaris GN 76 (Proteus vulgaris, UniProt P52664); experiment: as above; type: biochemical; details: control Cephalorizine = 100
# T1 construct: By using the supernatant of enzyme fluid; endogenous in cells; host or cells: Proteus vulgaris GN 76 (penicillin G-induced cells, sonicated, 15,000 r.p.m. supernatant)
# T1 sequence (P52664 30-300): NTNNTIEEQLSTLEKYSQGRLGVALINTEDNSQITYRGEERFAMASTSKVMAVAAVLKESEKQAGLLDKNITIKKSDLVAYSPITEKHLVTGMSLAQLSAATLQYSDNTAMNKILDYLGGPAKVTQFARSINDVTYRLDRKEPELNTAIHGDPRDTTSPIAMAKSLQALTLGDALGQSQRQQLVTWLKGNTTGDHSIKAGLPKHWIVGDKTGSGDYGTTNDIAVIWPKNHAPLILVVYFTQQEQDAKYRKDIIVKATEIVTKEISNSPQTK
# Protocol: as §2, §3, §4
SMILES,MIC Escherichia coli NIHJ (Escherichia coli NIHJ) [µg/mL],MIC Staphylococcus aureus 209p [1] [µg/mL],MIC Proteus vulgaris 3027 (Proteus vulgaris 3027) [µg/mL],MIC Pseudomonas aeruginosa I.F.O. [2] [µg/mL],MIC Klebsiella pneumoniae (Klebsiella pneumoniae [3]) [µg/mL],MIC Proteus mirabilis (Proteus mirabilis) [µg/mL],MIC Escherichia coli GN 3435 (Escherichia coli) [µg/mL],MIC Escherichia coli GN 3452 (Escherichia coli) [µg/mL],MIC Escherichia coli GN 3465 (Escherichia coli) [µg/mL],MIC Escherichia coli K-2 (Escherichia coli) [µg/mL],MIC Escherichia coli K-4 (Escherichia coli) [µg/mL],MIC Proteus rettgeri (Proteus rettgeri) [µg/mL],MIC Klebsiella pneumoniae GN 917 (Klebsiella pneumoniae [4]) [µg/mL],MIC Klebsiella pneumoniae GN 4081 (Klebsiella pneumoniae [4]) [µg/mL],MIC Pseudomonas aeruginosa GN4 (Pseudomonas aeruginosa) [µg/mL],MIC Pseudomonas aeruginosa GN 82 (Pseudomonas aeruginosa) [µg/mL],MIC Pseudomonas aeruginosa GN 221 (Pseudomonas aeruginosa) [µg/mL],MIC Pseudomonas aeruginosa GN 376 (Pseudomonas aeruginosa) [µg/mL],MIC Pseudomonas aeruginosa GN 1035 (Pseudomonas aeruginosa) [µg/mL],MIC Pseudomonas aeruginosa GN 1091 (Pseudomonas aeruginosa) [µg/mL],other results
"CCN1CCN(C(=O)NC(C(=O)NC2C(=O)N3C(C(=O)O)=C(CSc4nncs4)CSC23)c2ccc(O)cc2)C(=O)C1=O (single isomer, unassigned) [Compound No. 79]",< 0.1,1.57,3.13,3.13,0.79,1.56,0.39,0.39,3.13,1.56,0.78,3.13,0.78,12.5,12.5,12.5,6.25,6.25,25,12.5,MIC Pseudomonas aeruginosa GN 2565 (Pseudomonas aeruginosa): 25 µg/mL; MIC Pseudomonas aeruginosa S-1 (Pseudomonas aeruginosa): 25 µg/mL; MIC Proteus morganii (Proteus morganii): 1.56 µg/mL; MIC Staphylococcus aureus F-1 (Staphylococcus aureus): 1.56 µg/mL; MIC Staphylococcus aureus MS 8588 (Staphylococcus aureus): 3.13 µg/mL; MIC Staphylococcus aureus MS 8596 (Staphylococcus aureus): 3.13 µg/mL; MIC Staphylococcus aureus MS 8619 (Staphylococcus aureus): 1.56 µg/mL; MIC Staphylococcus aureus MS 8684 (Staphylococcus aureus): 1.56 µg/mL; MIC Proteus vulgaris (Proteus vulgaris): 0.39 µg/mL
"Cn1nnnc1SCC1=C(C(=O)O)N2C(=O)C(NC(=O)C(NC(=O)N3CCN(CCO)C(=O)C3=O)c3ccccc3)C2SC1 (single isomer, unassigned) [Compound No. 82]",< 0.1,1.57,0.79,25,0.79,3.13,1.56,1.56,6.25,6.25,1.56,6.25,1.56,6.25,50,50,25,25,50,50,MIC Pseudomonas aeruginosa GN (Pseudomonas aeruginosa): 50 µg/mL; MIC Pseudomonas aeruginosa GN 2565 (Pseudomonas aeruginosa): 50 µg/mL; MIC Pseudomonas aeruginosa S-1 (Pseudomonas aeruginosa): 100 µg/mL; MIC Proteus morganii (Proteus morganii): 1.56 µg/mL; MIC Staphylococcus aureus F-1 (Staphylococcus aureus): 3.13 µg/mL; MIC Staphylococcus aureus MS 8588 (Staphylococcus aureus): 3.13 µg/mL; MIC Staphylococcus aureus MS 8596 (Staphylococcus aureus): 3.13 µg/mL; MIC Staphylococcus aureus MS 8619 (Staphylococcus aureus): 1.56 µg/mL; MIC Staphylococcus aureus MS 8684 (Staphylococcus aureus): 1.56 µg/mL; MIC Proteus vulgaris (Proteus vulgaris): 0.78 µg/mL
CCN1CCN(C(=O)NC(C(=O)NC2C(=O)N3C(C(=O)O)=C(CSc4nnnn4C)CSC23)c2ccc(O)cc2)C(=O)C1=O (stereo not shown) [Compound No. 72],< 0.1,< 1.57,0.4,6.25,< 0.1,0.78,0.1,0.2,1.56,0.39,0.39,1.56,0.2,1.56,12.5,6.25,6.25,6.25,25,6.25,"Relative activity (%) against β-lactamase, E. freundii GN 346 [5]: 0.2%; Relative activity (%) against β-lactamase, Pr. vulgaris GN 76 [6]: 7%; MIC Pseudomonas aeruginosa GN (Pseudomonas aeruginosa): 12.5 µg/mL; MIC Pseudomonas aeruginosa GN 2565 (Pseudomonas aeruginosa): 25 µg/mL; MIC Pseudomonas aeruginosa S-1 (Pseudomonas aeruginosa): 12.5 µg/mL; MIC Proteus morganii (Proteus morganii): 0.78 µg/mL; MIC Staphylococcus aureus F-1 (Staphylococcus aureus): 1.56 µg/mL; MIC Staphylococcus aureus MS 8588 (Staphylococcus aureus): 1.56 µg/mL; MIC Staphylococcus aureus MS 8596 (Staphylococcus aureus): 3.13 µg/mL; MIC Staphylococcus aureus MS 8619 (Staphylococcus aureus): 1.56 µg/mL; MIC Staphylococcus aureus MS 8684 (Staphylococcus aureus): 1.56 µg/mL; MIC Proteus vulgaris (Proteus vulgaris): 0.39 µg/mL"
